Like-named read-outs stand apart in the source and are kept apart here.
What was measured:
[1] = tested on: o-SARS-CoV-2 spike pseudotyped virus particles (BA.2 lineage); assay type: cell-based; conditions: luciferase 72 h post-transduction
[2] = tested on: α-SARS-CoV-2 spike pseudotyped virus particles; assay type: cell-based; conditions: luciferase 72 h post-transduction
[3] = cell-pretreatment protocol: VERO cells with FA 20 μM or L7OG 5 μM for 2 h

SMILES | entry of o-SARS-CoV-2 pseudovirus (in words) [1, 3] | entry of α-SARS-CoV-2 pseudovirus (in words) [2, 3] | entry of o-SARS-CoV-2 pseudovirus (in words) ([1]; […], VERO cells) | entry of α-SARS-CoV-2 pseudovirus (in words) ([2]; […], VERO cells)
O=C(O)[C@H]1O[C@@H](Oc2cc(O)c3c(=O)cc(-c4ccc(O)c(O)c4)oc3c2)[C@H](O)[C@@H](O)[C@@H]1O [Compound L7OG, luteolin-7-O-glucuronide] | neither L7OG nor FA inhibited the entry | neither L7OG nor FA inhibited the entry |  | 
Nc1nc(=O)c2nc(CNc3ccc(C(=O)N[C@@H](CCC(=O)O)C(=O)O)cc3)cnc2[nH]1 [FA, folic acid, reference compound] | neither L7OG nor FA inhibited the entry | neither L7OG nor FA inhibited the entry | blocked the entry | blocked the entry

Source: article PMC10813393 (Biomolecules, 2023)
